Experimental data: patent US10851092B2, “Pyridine compound” (Daiichi Sankyo Company, Limited, priority 2016, dated 2020)
Read-outs that look alike come from different tables or passages of the source.

Key:
[1] = target: RET-wild type (Homo sapiens (Human), UniProt P07949); test: Evaluation of RET kinase inhibiting activity (cell system), Ba/F3 cells overexpressing Myc tagged RET; type: cell-based
Experimental: (§1) Thereafter, 1 mL of Cell Lysis Buffer (Cell signaling technology, #9803), a single tablet of Phosphatase inhibitor (Roche, #04906837001), and a single tablet of Protease inhibitor (Roche, #0469312400) were added to 9 mL of MilliQ, and 20 ul of the obtained mixture was then added to each well. The mixture thus obtained was placed on ice for 20 minutes, so that the cells were lysed. A 5-ul aliquot was taken from the cell lysate, and thereafter, 64 nl of Myc antibody (Cell signaling technology, #3946) and Streptavidin Donor beads in an equal amount of 102 nl of P-Tyr-100 Acceptor beads included in the Alpha Screen Phosphotyrosine (P-Tyr-100) assay kit (Perkin Elmer, #6760620C) were added to the aliquot in accordance with the instruction manual included with the aforementioned assay kit. The obtained mixture was reacted at room temperature overnight, and a RET kinase inhibiting activity rate was then measured using Envision.

[2] = target: KDR kinase (Homo sapiens (Human), UniProt P35968); test: Evaluation of KDR kinase inhibiting activity (cell system), HUVEC, AlphaLISA; type: cell-based
Experimental: HUVEC cells were seeded on a plate at a cell density of 1500 cells per well, and then cultured overnight. The test compound (10 uM, 2.5 uM, 625 nM, 156 nM, […], 10 nM, 2.5 nM, or 0.6 nM) was added to each well, followed by culturing the obtained mixture for 2 hours. Thereafter, VEGF165 (Peprotech, #100-20) was added to the culture at a final concentration of 50 ng/ml, and the obtained mixture was then reacted at 37° C. for 5 minutes. Thereafter, the resulting cells were lysed with 50 ul of Lysis buffer included in AlphaLISA SureFire Ultra (Perkin Elmer, # ALSU-PVGFR-A500), and Acceptor beads and Donor beads were then added to 10 ul of the cell lysate according to the instruction manual included with the aforementioned kit. The mixture thus obtained was reacted at room temperature overnight, and thereafter, a KDR kinase inhibiting activity rate was measured using Envision (Perkin Elmer).
The value for a well to which only the Lysis buffer had been added was subtracted as a background from all of the values. Thereafter, the value for a well to which […] had been added and the test compound had not been added was defined as a KDR kinase activity of 100%, and the obtained value was corrected.

[3] = system: phosphorylated RET in Ba/F3-RET-V804M tumors; test: One shot PKPD analysis, Ba/F3-RET-V804M tumors; type: in vivo, mice
[4] = target: RET-Gatekeeper mutation (V804L) recombinant protein (Homo sapiens (Human), UniProt P07949, V804L); test: Evaluation of RET kinase inhibiting activity (cell-free system), gatekeeper mutant; type: biochemical
Experimental: (§2) 19 uL of the RET kinase solution was added to each of lines A to P of a 384-well plate, and thereafter, the test compound at each concentration was added to lines C to N, and further, 1 uL of dimethyl sulfoxide (hereinafter referred to as DMSO) was added to each of lines A, B, O and P. Thereafter, the obtained mixtures were each preincubated at room temperature for 20 minutes. Furthermore, a substrate solution A containing ATP (final concentration: 1 mM) and a substrate solution B containing no ATP, both in addition to a reaction buffer and FL-Peptide 22 (PerkinElmer, #760366, final concentration: 1.5 uM) were produced. The substrate solution A was added in an amount of 5 uL to lines B to 0, whereas the substrate solution B was added in an amount of 5 uL to lines A and P. The obtained mixtures were each incubated at 28° C. for 45 minutes. A reaction termination solution (100 mM HEPES (pH 7.4), 0.015% Briji-35, 40 mM EDTA, and 0.1% Coating Reagent 3) was added in an amount of 40 ul to the reaction mixture, so as to terminate the reaction.
(§3) Using EZ Reader II (Perkin Elmer), a substrate peptide was separated from a phosphorylated peptide in the reaction solution, and the product ratio (P/(P+S)) calculated from the peak (S) of the substrate peptide and the peak (P) of the phosphorylated peptide was used for evaluation. The inhibition of the test compound having each concentration was obtained by the following formula (automatically calculated using the software of EZ Reader II System). Inhibition (%)=100×(1−Ci/Co) (a) Ci: Conversion rate of a reaction of a test compound with substrate solution A−conversion rate of a reaction of DMSO with substrate solution B Co: Conversion rate of a reaction of DMSO with substrate solution A−conversion rate of a reaction of DMSO with substrate solution B
(§4) Based on the inhibition rates of the test compound at 12 different concentrations according to the formula (a), a 4-parameter logistic regression curve was drawn. At this time, the 4-parameter logistic regression equation is expressed as follows. Inhibition (%)=Bottom+(Top−Bottom)/(1+(X/IC50)^^slope) (b) Top: Upward asymptote Slope: Slope parameter IC50: Value X of (Top+Bottom)/2 Bottom: Downward asymptote X: Concentration of test compound
(§5) First, any given initial values are inputted into Top, Slope, IC50, Bottom (Top=100, Slope=−1, IC50=approx. IC50, and Bottom=0), so that a regression curve was drawn. Subsequently, a least-squares method was executed to the sum of squares of a difference between the measured value and the estimated value obtained from formula (b) to calculate the coefficient of the 4-parameter logistic regression equation, so as to calculate IC50.

[5] = target: RET recombinant protein (RET-wild type) (Homo sapiens (Human), UniProt P07949); test: Evaluation of RET kinase inhibiting activity (cell-free system), mobility shift assay; type: biochemical
Experimental: as §2, §3, §4, §5

[6] = target: RET-V804L (Homo sapiens (Human), UniProt P07949, V804L); test: Evaluation of RET kinase inhibiting activity (cell system), Ba/F3 cells overexpressing RET (V804L) mutant; type: cell-based; details: Ba/F3, compound 2 hours
Experimental: as §1

[7] = system: thyroid gland cancer cell line TT having RET activating mutation (C634W); test: Cell growth inhibitory activity, thyroid gland cancer cell line TT; type: cell-based; details: Homo sapiens, 216 h; TT cells, 9 days, CellTiter-Glo
Experimental: The cell growth inhibitory activity of the test compound on the thyroid gland cancer cell line TT having RET activating mutation (C634W) (Biochemical and Biophysical Research Communications. 1995 Feb. 27 (207), 1022-1028) was measured.
TT cells were seeded on a 96-well plate at a cell density of 5,000 cells per well, and were then cultured at 37° C. in the presence of 5% CO2 overnight in an F-12K nutrient mixture medium containing 10% FBS. Thereafter, the compound was diluted, and then added to the 96-well plate. As a negative control, dimethyl sulfoxide (hereinafter referred to as DMSO) was added. The obtained mixture was cultured at 37° C. in the presence of 5% CO2 for 9 days, and thereafter, a cell count measuring reagent CellTiter-Glo® Luminescent Cell Viability Assay was added to the culture, followed by stirring the mixture. Thereafter, using a luminescence measurement device Envision (Perkin Elmer), the luminescence intensity was measured. The measurement value of a well to which only the medium had been added was define as a survival rate of 0%, and the measurement value of a well to which DMSO had been added was defined as a survival rate of 100%. The survival rate of the TT cells in the presence of each concentration of the test compound was calculated.

[8] = system: non-small cell lung cancer cell line LC-2/ad having a CCDC6-RET fusion gene; test: Cell growth inhibitory activity, non-small cell lung cancer cell line LC-2/ad; type: cell-based; details: Homo sapiens, 216 h; LC-2/ad cells, 9 days, CellTiter-Glo
Experimental: The cell growth inhibitory activity of the test compound on the non-small cell lung cancer cell line LC-2/ad having a CCDC6-RET fusion gene (RIKEN, J Thorac Oncol. 2012 December, 7(12), 1872-6) was measured.
LC-2/ad cells were seeded on a 96-well plate at a cell density of 5,000 cells per well, and then cultured at 37° C. in the presence of 5% CO2 overnight in a medium prepared by mixing RPMI-1640 containing 15% FBS and 25 mM HEPES with Ham's F12 Mixture at a mixing ratio of 1:1. Thereafter, the test compound was diluted, and then added to the 96-well plate. As a negative control, dimethyl sulfoxide (hereinafter referred to as DMSO) was added. The obtained mixture was cultured at 37° C. in the presence of 5% CO2 for 9 days, and thereafter, a cell count measuring reagent CellTiter-Glo® Luminescent Cell Viability Assay (Promega, # G7571) was added to the culture, followed by stirring the mixture. Thereafter, using a luminescence measurement device Envision, the luminescence intensity was measured. The measurement value of a well to which only the medium had been added was define as a survival rate of 0%, and the measurement value of a well to which DMSO had been added was defined as a survival rate of 100%. The survival rate of the LC-2/ad cells in the presence of each concentration of the test compound was calculated.

[9] = comparator compounds, Form: Free, read-out: IC50 (nM) RET
[10] = cell system, comparator compounds, Form: Free, read-out: IC50 (nM) KDR
[11] = cell system, Form: Mesylate, read-out: IC50 (nM) KDR

Chain of KDR kinase (P35968 20-1356): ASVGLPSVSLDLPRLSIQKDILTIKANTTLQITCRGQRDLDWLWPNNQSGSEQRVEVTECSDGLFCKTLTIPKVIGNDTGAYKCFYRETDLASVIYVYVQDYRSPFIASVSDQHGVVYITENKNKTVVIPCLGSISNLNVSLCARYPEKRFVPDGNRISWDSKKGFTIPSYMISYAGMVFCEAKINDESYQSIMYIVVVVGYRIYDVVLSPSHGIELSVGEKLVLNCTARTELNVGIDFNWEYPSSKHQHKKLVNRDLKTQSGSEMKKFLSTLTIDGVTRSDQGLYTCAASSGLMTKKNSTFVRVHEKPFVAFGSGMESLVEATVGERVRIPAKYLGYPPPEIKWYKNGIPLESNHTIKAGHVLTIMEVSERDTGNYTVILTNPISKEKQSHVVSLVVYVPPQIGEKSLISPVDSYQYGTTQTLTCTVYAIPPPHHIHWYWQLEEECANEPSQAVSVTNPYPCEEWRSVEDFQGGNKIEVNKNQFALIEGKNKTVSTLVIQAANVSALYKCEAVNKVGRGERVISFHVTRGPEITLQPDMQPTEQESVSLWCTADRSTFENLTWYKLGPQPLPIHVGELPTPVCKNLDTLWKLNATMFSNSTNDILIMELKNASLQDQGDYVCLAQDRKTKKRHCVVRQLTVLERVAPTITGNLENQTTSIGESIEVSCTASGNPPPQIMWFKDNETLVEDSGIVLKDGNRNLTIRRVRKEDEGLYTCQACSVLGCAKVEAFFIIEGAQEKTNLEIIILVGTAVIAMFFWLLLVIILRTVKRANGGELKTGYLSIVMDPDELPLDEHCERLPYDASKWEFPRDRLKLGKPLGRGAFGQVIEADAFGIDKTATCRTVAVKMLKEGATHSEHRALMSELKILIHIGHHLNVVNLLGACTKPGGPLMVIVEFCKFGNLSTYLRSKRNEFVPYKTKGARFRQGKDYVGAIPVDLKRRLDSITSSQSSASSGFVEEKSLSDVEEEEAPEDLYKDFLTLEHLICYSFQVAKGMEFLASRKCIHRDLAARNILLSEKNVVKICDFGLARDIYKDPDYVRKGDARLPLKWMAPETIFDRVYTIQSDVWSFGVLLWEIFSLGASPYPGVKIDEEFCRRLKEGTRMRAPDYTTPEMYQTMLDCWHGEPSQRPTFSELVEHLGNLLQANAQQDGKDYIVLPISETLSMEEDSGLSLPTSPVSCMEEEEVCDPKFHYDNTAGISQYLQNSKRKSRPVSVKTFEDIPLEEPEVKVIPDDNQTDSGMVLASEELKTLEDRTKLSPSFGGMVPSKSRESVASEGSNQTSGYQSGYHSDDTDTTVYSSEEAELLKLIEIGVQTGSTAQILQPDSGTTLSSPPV
Chain of RET-wild type (P07949 29-1114): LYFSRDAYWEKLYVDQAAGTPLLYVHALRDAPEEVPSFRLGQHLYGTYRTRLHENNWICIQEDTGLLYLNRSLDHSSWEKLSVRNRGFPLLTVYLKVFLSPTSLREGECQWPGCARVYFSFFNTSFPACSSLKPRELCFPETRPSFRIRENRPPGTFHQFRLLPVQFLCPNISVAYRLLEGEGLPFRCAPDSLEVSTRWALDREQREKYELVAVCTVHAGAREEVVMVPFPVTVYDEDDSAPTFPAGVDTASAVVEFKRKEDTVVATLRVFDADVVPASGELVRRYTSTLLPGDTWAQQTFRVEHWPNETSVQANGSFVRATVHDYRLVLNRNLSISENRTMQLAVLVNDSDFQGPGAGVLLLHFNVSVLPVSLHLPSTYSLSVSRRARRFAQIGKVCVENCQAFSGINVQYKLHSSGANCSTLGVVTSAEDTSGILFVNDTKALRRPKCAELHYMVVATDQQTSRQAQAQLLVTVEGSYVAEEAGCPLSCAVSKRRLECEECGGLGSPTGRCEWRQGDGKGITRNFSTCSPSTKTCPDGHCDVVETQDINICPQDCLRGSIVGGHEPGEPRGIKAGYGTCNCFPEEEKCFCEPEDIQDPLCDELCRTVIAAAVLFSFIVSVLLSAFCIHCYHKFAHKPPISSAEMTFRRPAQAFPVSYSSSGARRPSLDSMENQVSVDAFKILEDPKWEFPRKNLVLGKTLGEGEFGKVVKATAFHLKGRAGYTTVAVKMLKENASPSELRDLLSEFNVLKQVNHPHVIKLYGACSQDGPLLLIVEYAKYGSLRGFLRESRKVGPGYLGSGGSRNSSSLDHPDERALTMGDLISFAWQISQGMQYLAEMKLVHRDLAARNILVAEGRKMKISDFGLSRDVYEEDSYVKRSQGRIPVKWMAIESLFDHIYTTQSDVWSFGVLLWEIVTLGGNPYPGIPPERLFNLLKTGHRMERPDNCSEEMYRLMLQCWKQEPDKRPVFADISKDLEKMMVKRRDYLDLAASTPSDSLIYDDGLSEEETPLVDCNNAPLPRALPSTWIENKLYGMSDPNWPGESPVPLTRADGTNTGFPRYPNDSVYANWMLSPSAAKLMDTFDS
Chain of RET recombinant protein (RET-wild type) (P07949 29-1114): as above
Chain of RET-Gatekeeper mutation (V804L) recombinant protein (P07949 29-1114 V804L): as the sequence (P07949 29-1114) above, with V776L counted along it
Chain of RET-V804L (P07949 29-1114 V804L): as the sequence (P07949 29-1114) above, with V776L counted along it

SMILES: COc1cc2cc(-c3ccc(CC(=O)Nc4cc(C(C)(C)C(F)(F)F)no4)c(F)c3)cnc2cc1OC [Ref Ex. 3, 2-[4-(6,7-Dimethoxyquinolin-3-yl)-2-fluorophenyl]-N-[3-(1,1,1-trifluoro-2-methylpropan-2-yl)-1,2-oxazol-5-yl]acetamide, reference compound]
- IC50 [1, 9]: 8 nM
- IC50 [2, 10]: 6 nM

SMILES: COc1cc2cc(-c3ccc(CC(=O)Nc4cc(C(C)(C)C(F)(F)F)no4)cc3)cnc2cc1OC [Ref Ex. 1, 2-[4-(6,7-Dimethoxyquinolin-3-yl)phenyl]-N-[3-(1,1,1-trifluoro-2-methylpropan-2-yl)-1,2-oxazol-5-yl]-acetamide, reference compound]
- IC50 [1, 9]: 8 nM
- IC50 ([2]; cell system, comparator compounds, Form: Mesylate, read-out: IC50 (nM) KDR): 7 nM

SMILES: COc1cc2ncc(-c3cnc(CC(=O)Nc4cc(C(C)(C)C(F)(F)F)on4)c(F)c3)nc2cc1OC [Compound 229, reference compound]
- suppression of phosphorylated RET (pRET) in Ba/F3-RET-V804M tumors ([3]; 10 mg/kg oral): did not suppress
- exposure in tumors ([3]; Ba/F3-RET-V804M tumors, 10 mg/kg oral): poor exposure in tumors
- Relative phosphorylation of RET (%) in Ba/F3-RET-V804M tumors ([3]; Dose: 10 mg/kg oral, six hours after administration, relative to vehicle): 98%
- IC50 ([4]; non-cell system, read-out: Biochemical assay (non-cell system) IC50 (nM) RET-V804L): 1.7 nM
- inhibitory effect in vitro ([5]; in vitro): strong inhibitory effect
- IC50 ([5]; non-cell system, read-out: Biochemical assay (non-cell system) IC50 (nM) RET-WT): 1.5 nM

SMILES: COc1cc2cc(-c3ccc(CC(=O)Nc4cc(C(C)(C)C(F)(F)F)n[nH]4)cc3)cnc2cc1OC [Ref Ex. 2, 2-[4-(6,7-Dimethoxyquinolin-3-yl)phenyl]-N-[3-(1,1,1-trifluoro-2-methylpropan-2-yl)-1H-pyrazol-5-yl]-acetamide, reference compound]
- IC50 [1, 9]: 5 nM
- IC50 [2, 10]: 16 nM

SMILES: COc1cc2cc(-c3ccc(CC(=O)Nc4cc(C(C)(C)C(F)(F)F)n[nH]4)cn3)cnc2cc1OC [Example 5, 2-[6-(6,7-Dimethoxyquinolin-3-yl)pyridin-3-yl]-N-[3-(1,1,1-trifluoro-2-methylpropan-2-yl)-1H-pyrazol-5-yl]acetamide]
- IC50 ([1]; Ba/F3, compound 2 hours, read-out: RET-wild type IC50): 10 nM
- IC50 [6]: 15 nM
- IC50 [7]: 17 nM
- IC50 ([4]; cell-free system, ATP 1 mM, read-out: RET-V804L IC50): 2.7 nM
- IC50 [8]: 82 nM
- IC50 ([5]; cell-free system, ATP 1 mM, read-out: RET-wild type IC50): 2.2 nM

SMILES: COc1cc2ncc(-c3ccc(CC(=O)Nc4cc(C(C)(C)C(F)(F)F)on4)cc3)nc2cc1OC [Ex. 8, reference compound]
- IC50 [1, 9]: 7 nM
- IC50 [2, 10]: 9 nM

SMILES: CCc1cc2c(cc1N1CCC(N3CCOCC3)CC1)C(C)(C)c1[nH]c3cc(C#N)ccc3c1C2=O [Alectinib, 9-Ethyl-6,6-dimethyl-8-[4-(morpholin-4-yl)piperidin-1-yl]-11-oxo-6,11-dihydro-5H-benzo[b]carbazole-3-carbonitrile, reference compound]
- IC50 [7]: 112 nM
- IC50 [8]: 308 nM

SMILES: COc1cc2cc(-c3ccc(CC(=O)Nc4cc(C(C)(C)C(F)(F)F)on4)cn3)cnc2cc1OC [Example 2, 2-[6-(6,7-Dimethoxyquinolin-3-yl)pyridin-3-yl]-N-[5-(1,1,1-trifluoro-2-methylpropan-2-yl)-1,2-oxazol-3-yl]acetamide Methanesulfonate]
- IC50 [2, 11]: 828 nM

SMILES: COc1cc2cc(-c3ccc(CC(=O)Nc4cc(C(C)(C)C(F)(F)F)on4)cn3)cnc2cc1OC [Example 1, 2-[6-(6,7-Dimethoxyquinolin-3-yl)pyridin-3-yl]-N-[5-(1,1,1-trifluoro-2-methylpropan-2-yl)-1,2-oxazol-3-yl]acetamide]
- IC50 ([1]; Form: Free, read-out: IC50 (nM) RET): 18 nM

SMILES: COc1cc2cc(-c3ccc(CC(=O)Nc4cc(C(C)(C)C(F)(F)F)n[nH]4)cn3)cnc2cc1OC [Example 6, 2-[6-(6,7-Dimethoxyquinolin-3-yl)pyridin-3-yl]-N-[3-(1,1,1-trifluoro-2-methylpropan-2-yl)-1H-pyrazol-5-yl]acetamide Methanesulfonate]
- IC50 ([2]; KDR, HUVEC cells, VEGF165 50 ng/ml, compound 2 hours, read-out: IC50): 566 nM
- IC50 [2, 11]: 566 nM
